In EP4729058A1, “AGENT FOR PROMOTING ENERGY CONSUMPTION” (Otsuka Pharmaceutical Factory, Inc., priority 2023, dated 2024):

Columns and labels:
Type in all cases: in vivo, Mouse, C57BL/6J, male
[1] = Body composition (body composition analyzer, Echo MRI-700); settings: 720 mg/10mL/kg oral twice a day, ultra high fat diet, n=10
Description: The body fat mass and the lean body mass were measured with a body composition analyzer (Echo MRI-700, Hitachi, Ltd.) at 6, 9, and 12 weeks of the test food intake, and divided by the body weight to calculate body fat percentage and lean body mass percentage.
(§1) Animals after arrival were fed ad libitum a solid diet of ultra high fat diet (D12492). After an acclimatization period, the animals were divided into groups according to the body weight. Then, the animals were individually housed and fed ad libitum the ultra high fat diet. The test substance was orally administered to all groups twice daily (once in the morning and once in the afternoon) (CON group: 0.5% CMC was orally administered; compound A administered group: compound A was orally administered). The day of the first administration was regarded as day 0 from the start of the test. Here, 5 animals from each group were regarded as the first-half animals, and the rest were regarded as the second-half animals, and feeding and administration for the second-half animals were started on day 2 from the start of the test of the first-half animals (day 0 from the start of the test of the second-half animals). In order for the animals to be acclimated to the environment inside an exhaled gas measurement chamber, the animals after oral administration in the morning (9:00) at days 7, 21, and 49 days from the start of the test were individually accommodated in the exhaled gas measurement chamber for 5.5 hours (10:00-15:30) with free access to water under fasting conditions. On days 28 and 65, after oral administration in the morning (11:00), all applicable animals were promptly accommodated individually in the exhaled gas measurement chamber, and acclimated for about 24 hours with free access to water and food. Oral administration was carried out in the afternoon of the same day (15:30) and in the morning of the next day (8:30), and the animals after administration were promptly accommodated in the exhaled gas measurement chamber again. After acclimation, the animals were returned to the cages for housing them. On day 82, all applicable animals were promptly accommodated in the exhaled gas measurement chamber (10:00) before oral administration in the morning. Oral administration was carried out in the morning (11:00) and afternoon (15:30) of the same day, and after oral administration in the morning (8:30) of the next day, exhaled gas was measured until necropsy. The animals were subjected to necropsy in the afternoon on day 83 (13:00). At the time of necropsy, laparotomy was performed under isoflurane anesthesia, and blood was collected from the caudal vena cava. After blood collection, the animals were euthanized by bleeding from the site of blood collection, and organs (fat, skeletal muscle) were collected.

[2] = White fat tissue weight at necropsy; settings: white fat weight per body weight at necropsy, 720 mg/10mL/kg oral twice a day for 12 weeks, ultra high fat diet, n=10
Text: as §1
At the time of necropsy, fat around the left and right epididymides was taken out, and then the epididymides were discarded. […]

[3] = Skeletal muscle weight at necropsy; settings: 720 mg/10mL/kg oral twice a day for 12 weeks, ultra high fat diet, n=10, p<0.05 vs CON
Text: as §1, with “collected. […]” for “collected.”

Body weight measurement = settings: for Body weight: ultra high fat diet, n=10
Description: Measurements were carried out at the time of arrival and every week from the day of grouping until the time of necropsy. Measurements were also carried out on the day of measuring the body composition and immediately before necropsy.
as §1

[4] = Rectal temperature before necropsy; settings: before necropsy (day 83); 720 mg/10mL/kg oral twice a day for 12 weeks, ultra high fat diet; n=10; p < 0.01 vs CON
Text: Before necropsy, a temperature controller for small animals (NS-TC10 Temperature Controller, Neuroscience, Inc.) equipped with a probe for measuring the rectal temperature was inserted into the rectum to measure the rectal temperature.
(§2) Animals after arrival were fed ad libitum a solid diet of ultra high fat diet (D12492). After an acclimatization period, the animals were divided into groups according to the body weight. Then, the animals were individually housed and fed ad libitum the ultra high fat diet. The test substance was orally administered to all groups twice daily (once in the morning and once in the afternoon) (CON group: 0.5% CMC was orally administered; compound A administered group: compound A was orally administered). The day of the first administration was regarded as day 0 from the start of the test. Here, 5 animals from each group were regarded as the first-half animals, and the rest were regarded as the second-half animals, and feeding and administration for the second-half animals were started on day 2 from the start of the test of the first-half animals (day 0 from the start of the test of the second-half animals). […] Oral administration was carried out in the morning (11:00) and afternoon (15:30) of the same day, and after oral administration in the morning (8:30) of the next day, exhaled gas was measured until necropsy. […]

[5] = Analysis of exhaled gas (energy metabolism measurement system for small animals); settings: over 24 hours after morning administration on day 82, 720 mg/10mL/kg oral twice a day, ultra high fat diet, n=10
Description: A 32-channel energy metabolism measurement system for small animals (ARCO-2000-RAT, Arco System Inc.) was used to measure exhaled gas. Oxygen consumption (mL/min) and Carbon dioxide production (mL/min) of the animals were measured every 10 minutes at an air flow rate of 0.3 L/min. Measurements were carried out for about 24 hours after the completion of oral administration in the morning of the day before necropsy, and total oxygen consumption (mL/kg/day), energy consumption (kcal/kg/day), and lipid burning (mg/kg/day) over 24 hours were calculated using the following formulae: Calculation formulae: [formula] [formula] [formula] (VO2: oxygen consumption, VCO2: carbon dioxide production)
as §1, with “On day 82, all applicable animals were promptly accommodated in the exhaled gas measurement chamber (10:00) before oral administration in the morning.” left out, “The animals were subjected to necropsy in the afternoon on day 83 (13:00). At the time of necropsy, laparotomy was performed under isoflurane anesthesia, and blood was collected from the caudal vena cava. After blood collection, the animals were euthanized by bleeding from the site of blood collection, and organs (fat, skeletal muscle) were collected.” left out

[6] = Total cholesterol in plasma at necropsy; settings: 720 mg/10mL/kg oral twice a day for 12 weeks, ultra high fat diet, n=10, p < 0.01 vs CON
Text: as §2

[7] = muscle weight per body weight at necropsy, left and right together
[8] = calculated from VO2 and VCO2, p < 0.01 vs CON

O=C(O)CC(C(=O)O)N1C(=O)CC(O)(CC(=O)O)C1=O (racemic) [Compound A]
Lean body mass percentage ([1]; 6 weeks, p=0.057 vs CON): 79.6% | Body fat percentage ([1]; 6 weeks, p=0.092 vs CON): 15.6% | Body fat percentage ([1]; 9 weeks, p < 0.05 vs CON): 17.7% | Lean body mass percentage ([1]; 9 weeks, p < 0.05 vs CON): 77.3% | Body fat percentage ([1]; 12 weeks, p < 0.01 vs CON): 19.0% | Lean body mass percentage ([1]; 12 weeks, p < 0.01 vs CON): 74.7% | Epididymal fat ([2]; p < 0.01 vs CON): 32.18 g/Kg body weight | Perirenal fat ([2]; p < 0.01 vs CON): 12.12 g/Kg body weight | Interscapular fat ([2]; p<0.05 vs CON): 1.88 g/Kg body weight | Mesenteric fat ([2]; p<0.05 vs CON): 10.10 g/Kg body weight | Anterior tibialis muscle [3, 7]: 3.53 g/Kg body weight | Extensor digitorum longus muscle [3, 7]: 0.84 g/Kg body weight | Plantaris muscle [3, 7]: 1.31 g/Kg body weight | Muscles (Total weight of 3 types of muscle) ([3]; plantaris, anterior tibial and extensor digitorum longus muscle, per body weight at necropsy): 5.68 g/Kg body weight | Body weight (Body weight measurement; 1 week, 720 mg/10mL/kg oral twice a day): 24.9 g | Body weight (Body weight measurement; 2 weeks, 720 mg/10mL/kg oral twice a day): 25.1 g | Body weight (Body weight measurement; 3 weeks, 720 mg/10mL/kg oral twice a day): 25.3 g | Body weight (Body weight measurement; 4 weeks, 720 mg/10mL/kg oral twice a day): 25.4 g | Body weight (Body weight measurement; 5 weeks, 720 mg/10mL/kg oral twice a day): 25.8 g | Body weight (Body weight measurement; 6 weeks, 720 mg/10mL/kg oral twice a day): 26.4 g | Body weight (Body weight measurement; 7 weeks, 720 mg/10mL/kg oral twice a day, p=0.087 vs CON): 26.8 g | Body weight (Body weight measurement; 8 weeks, 720 mg/10mL/kg oral twice a day, p=0.082 vs CON): 27.3 g | Body weight (Body weight measurement; 9 weeks, 720 mg/10mL/kg oral twice a day, p=0.068 vs CON): 27.8 g | Body weight (Body weight measurement; 10 weeks, 720 mg/10mL/kg oral twice a day, p < 0.05 vs CON): 27.2 g | Body weight (Body weight measurement; 11 weeks, 720 mg/10mL/kg oral twice a day, p < 0.05 vs CON): 28.3 g | Body weight (Body weight measurement; 12 weeks, 720 mg/10mL/kg oral twice a day, p < 0.05 vs CON): 28.9 g | Body weight (Body weight measurement; Before administration (baseline)): 25.1 g | body weight gain relative to the body weight gain of the CON group being 100% (Body weight measurement; after 12 weeks of administration, (3.8 / 7.2) × 100): 52.8% | mean body weight gain (Body weight measurement; after 12 weeks of administration, CON group 7.2 g): 3.8 g | Rectal temperature [4]: 35.7 °C | total carbon dioxide production [5]: 28.277 mL/min/kg | total oxygen consumption ([5]; p < 0.01 vs CON): 35.682 mL/min/kg | total energy consumption [5, 8]: 243 kcal/kg/day | total lipid burning [5, 8]: 17768 mg/kg/day | Total cholesterol [6]: 149.4 mg/dL
